d = 2'-deoxy (DNA); m = 2'-O-methyl
Molecular target: T1, human TLR7 (Homo sapiens, UniProt Q9NYK1)
T1 construct: HA; host or cells: 293XL-hTLR7-HA (HEK293)
T1 sequence (Q9NYK1 27-1049): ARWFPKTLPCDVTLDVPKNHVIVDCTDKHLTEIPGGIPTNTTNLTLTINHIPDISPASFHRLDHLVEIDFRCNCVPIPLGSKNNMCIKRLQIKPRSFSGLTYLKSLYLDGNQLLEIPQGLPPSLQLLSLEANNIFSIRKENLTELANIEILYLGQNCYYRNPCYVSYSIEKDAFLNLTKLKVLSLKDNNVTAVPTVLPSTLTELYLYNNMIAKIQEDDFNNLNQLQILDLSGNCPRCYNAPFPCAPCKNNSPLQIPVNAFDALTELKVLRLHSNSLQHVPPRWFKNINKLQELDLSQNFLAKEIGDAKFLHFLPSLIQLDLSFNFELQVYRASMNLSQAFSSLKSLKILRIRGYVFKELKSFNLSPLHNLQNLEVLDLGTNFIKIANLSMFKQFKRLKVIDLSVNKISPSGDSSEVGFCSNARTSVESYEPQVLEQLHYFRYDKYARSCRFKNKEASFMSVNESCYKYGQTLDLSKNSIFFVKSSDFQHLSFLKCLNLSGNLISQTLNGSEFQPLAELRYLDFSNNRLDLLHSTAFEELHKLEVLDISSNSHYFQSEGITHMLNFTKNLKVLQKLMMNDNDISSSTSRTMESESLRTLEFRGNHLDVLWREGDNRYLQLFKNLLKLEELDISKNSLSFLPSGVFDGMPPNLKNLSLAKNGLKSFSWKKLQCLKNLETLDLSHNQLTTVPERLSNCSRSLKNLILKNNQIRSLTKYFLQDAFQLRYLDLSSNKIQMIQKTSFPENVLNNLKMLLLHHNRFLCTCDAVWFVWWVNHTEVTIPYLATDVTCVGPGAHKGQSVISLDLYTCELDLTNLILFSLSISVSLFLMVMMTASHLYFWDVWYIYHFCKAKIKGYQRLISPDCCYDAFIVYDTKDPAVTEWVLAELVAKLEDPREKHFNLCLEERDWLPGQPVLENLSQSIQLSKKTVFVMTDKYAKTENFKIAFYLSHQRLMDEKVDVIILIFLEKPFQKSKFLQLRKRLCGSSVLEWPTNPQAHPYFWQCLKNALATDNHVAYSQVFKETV
Test: HEK-TLR7 NF-κB-luciferase reporter, R848 stimulation
Assay type: cell-based
Settings: for TLR7 100 nM (averaged NF-κB-Luciferase level relative to R848 condition): ASO 100 nM; for TLR7 100 nM (averaged NF-κB-Luciferase level relative to R848 condition) / TLR7 500 nM (averaged NF-κB-Luciferase level relative to R848 condition): relative to R848 only, given as fraction; for TLR7 500 nM (averaged NF-κB-Luciferase level relative to R848 condition): ASO 500 nM

Row | Substance | TLR7 100 nM (averaged NF-κB-Luciferase level relative to R848 condition) | TLR7 500 nM (averaged NF-κB-Luciferase level relative to R848 condition) | TLR7 100 nM (MOE-modified ASO at 100 nM, averaged NF-κB-Luciferase relative to R848 condition) | TLR7 500 nM (MOE-modified ASO at 500 nM, averaged NF-κB-Luciferase relative to R848 condition) | TLR7-100 nM: averaged NF-κB-Luciferase relative to R848 (HEK-TLR7, 100 nM ASO, percentage of R848 without ASO (Alharbi et al., 2020))
1 | CCTTGCACGTGGCTTC (antisense; LNA-modified, pattern not given here) [EGFR-1013 LNA V1] | 0.617 | 0.281 | – | – | –
2 | CTTGGCTTCGTGGAGC (antisense; LNA-modified, pattern not given here) [MB21D1-520 LNA V1] | 0.806 | 0.098 | – | – | –
3 | CCAACACTTCGTGGGG (antisense; LNA-modified, pattern not given here) [HPRT LNA-668 V1] | 0.808 | 0.446 | – | – | –
4 | TCCGCCCAAAGGGAAC (antisense; LNA-modified, pattern not given here) [HPRT LNA-1027 KL] | 0.860 | 0.543 | – | – | –
5 | TCGTGGGGTCCTTTTC (antisense; LNA-modified, pattern not given here) [HPRT LNA-660 V1] | 0.540 | 0.318 | – | – | –
6 | TGTCCTTGCACGTGGC (antisense; LNA-modified, pattern not given here) [EGFR-1016 LNA V1] | 0.502 | 0.199 | – | – | –
7 | AGGCCCTTCGCACTTC (antisense; LNA-modified, pattern not given here) [EGFR-1225 LNA V1] | 0.737 | 0.164 | – | – | –
8 | ACACTTCGTGGGGTCCTTTT (antisense; 2'-MOE modified, pattern not given here) [HPRT-663 MOE] | – | – | 0.403 | 0.235 | –
9 | CCAGCAGGTCAGCAAA (antisense; LNA-modified, pattern not given here) [HPRT LNA-388 KL] | 1.101 | 0.942 | – | – | –
10 | mG*mC*mA*mG*mU*C*T*C*C*A*T*G*T*C*C*mC*mA*mG*mG*mC (GCAGUCTCCATGTCCCAGGC; antisense; sugars from the 5' end m5 d10 m5, all phosphorothioate, methylation of C not given here) [[CDKN2B-AS1]2234] | – | – | – | – | 20.30%
11 | ACGTTCAGTCCTGTCC (antisense; LNA-modified, pattern not given here) [HPRT LNA-294 V1] | 0.601 | 0.136 | – | – | –
12 | GCACACTTCGTACCCA (antisense; LNA-modified, pattern not given here) [CAMSAP1-4915 LNA V1] | 0.657 | 0.221 | – | – | –
13 | TCCTTGCACGTGGCTT (antisense; LNA-modified, pattern not given here) [EGFR-1014 LNA V1] | 0.812 | 0.482 | – | – | –
14 | CTTCGTGGGGTCCTTT (antisense; LNA-modified, pattern not given here) [HPRT LNA-662 V1] | 0.685 | 0.233 | – | – | –
15 | GTCTTCATCGGCCCTG (antisense; LNA-modified, pattern not given here) [CAMSAP1-2113 LNA V1] | 0.641 | 0.119 | – | – | –
16 | TCTTGGCTTCGTGGAG (antisense; LNA-modified, pattern not given here) [MB21D1-521 LNA V1] | 1.033 | 0.288 | – | – | –

— US20240384268A1, “Oligonucleotides” (Hudson Institute of Medical Research, priority 2021, published 2024)
